Results: patent US20010051646A1, “Method for the improvement of islet signaling in diabetes mellitus and for its prevention” (priority 2000, published 2001)
Several values for one entry are separate records, joined by “and”; a condition that tells them apart may be missing. Identical values can stand only once. Entries after “also recorded” stand apart in the source; their conditions may differ. Marks after values point to notes of the source that are not given here.

What was measured:
healthy male volunteers = experiment: First-human study of P32/98 with extended OGTT: active GLP-1, insulin and glucose; type: in vivo; conditions: for Maximum change in GLP-1, active (0-12h, median) / Maximum change in glucose (0-12h, median) / Maximum change in insulin (0-12h, median): OGTT; for Increase of mean insulin concentration after 75 g glucose at 10 min post-dose: within 40-55 min
Text: The 36 healthy male subjects were divided into 3 individual groups with each group containing 12 subjects. […] The subjects in all groups who were receiving placebo were given placebo at both dosing intervals.
Each subject participated in the pre-study and experimental phase, which were separated by a washout phase of at least 5 days. The follow-up examination was done at least 7 days after the last dose of study drug. The study procedures of the six periods were identical, except for the dose under investigation.
At each glucose tolerance test, subjects ingested 300 mL of a mono-/disaccharid solution equivalent to 75 g glucose (Dextro®O.G.-T, Boehringer Mannheim, FRG).
An extended OGTT was performed on Day 1 of each dosing period. Subjects ingested 300 mL of a mono-/disaccharid solution equivalent to 75 g glucose. […] Additionally other pharmacodynamic assessments that are well known in the art were taken.
Insulin: 4.7 ml blood was collected into 4.9 ml EDTA-tubes. Samples were centrifuged (1500 g, 10 min) and stored frozen at −70° C. until laboratory analysis.
Glucose: 1.2 ml blood was collected into 1.2 ml sodium fluoride tubes. Plasma samples were centrifuged at 1500 g for 10 min and stored frozen at −70° C. until laboratory analysis. GLP-1: 2.7 ml blood was collected in EDTA tubes and placed on ice or refrigerated, to which a dipeptidyl peptidase IV-inhibitor was added. The inhibitor was prepared in advance by researchers. Blood was collected in tubes and centrifuged immediately at 1000 g for 10 min in refrigerated centrifuge or the blood was placed in ice and centrifuged within 1 hour and aliquoted into equal samples. Blood was stored in appropriate aliquots at −70° C. (to avoid multiple freezing/thawing cycles) until laboratory analysis.

Male Zucker fa/fa rats = experiment: OGTT after 21 days treatment: blood glucose and plasma insulin; type: in vivo, rat
Protocol: The parameters monitored were morning blood glucose and plasma insulin levels. […] An OGTT was performed finally on day 21 to monitor blood glucose and plasma insulin kinetics to assess changes in glucose tolerance. Glibenclamide (DAB 1996; R011150/33372) was donated by Berlin-Chemie (Berlin, Germany). Male Zucker (fa/fa) rats of the body weight class of 300 g were purchased from Charles River (Sulzfeld, Germany). Repeated Dosing: 30 male non-diabetic Wistar and 30 male diabetic Zucker rats were randomized to RP (Reference Product: glibenclamide)-, TP- (jest Product: […] Thereafter, the non-diabetic Wistar rats were treated orally once daily with RP (5 mg/kg b.w.) or TP (21.61 mg/kg b.w.) and the diabetic Zucker rats were treated orally once daily with RP (1 mg/kg b.w.) or TP (21.61 mg/kg b.w.) for 21 days at 05.00 p.m. (before regular food intake in the dark phase). The controls were given 1% cellulose solution orally (5 ml/kg). […] The oral drug therapy was continued for one week. […] OGTT: A final OGTT was performed on day 21 with blood sampling from the tail vein. […] The latter were immediately centrifuged and the plasma fractions were stored at −20 ° C. for insulin analysis. Blood glucose: Glucose levels were measured using the glucose oxidase procedure (Super G Glukosemeβgerät; Dr. Müller Gerätebau, Freital, Germany). Plasma insulin: Insulin concentrations were assayed by the antibody RIA method (LINCO Research, Inc. St. Charles, Mo., USA).

Q: How did the “Baseline-corrected mean peak (Cmax) glucose concentration” value (shortened to “Baseline-corrected mean peak”) (healthy male volunteers; 7.5 mg) turn out when “isoleucyl thiazolidine hemifumarate [P32/98]” was run?
A: exceeded 4.0 mmol/l

Q: What about the “Mean baseline-corrected glucose AUC” value (healthy male volunteers; 7.5 mg) of the same substance?
A: > 200 mmol·min/L

Q: What about the “Maximum change in GLP-1, active (0-12h, median)” value (“Maximum change in GLP-1, active” below) (healthy male volunteers; 7.5 mg oral single dose) of the same substance?
A: 4.10 pmol/L

Q: And the “Maximum change in glucose (0-12h, median)” value (“Maximum change in glucose” below) (healthy male volunteers; 7.5 mg oral single dose)?
A: 4.66 mmol/L

Q: What about the “Maximum change in insulin (0-12h, median)” value (from here on “Maximum change in insulin”) (healthy male volunteers; 7.5 mg oral single dose) of the same substance?
A: 41.86 μIU/ml

Q: And the “Corrected AUC0→180 min of glucose concentrations after OGTT, Mean ± SD” value (shortened to “Corrected AUC0→180 min … Mean ± SD”) (healthy male volunteers; 7.5 mg, periods 1-3)?
A: 299.7 ± 111.4 mmol·min

Q: And the “Corrected Cmax of glucose concentrations 0-3 h after OGTT, Mean ± SD” value (“Corrected Cmax … Mean ± SD” for short) (healthy male volunteers; 7.5 mg, periods 1-3)?
A: 4.94 ± 1.58 mmol

Q: What about the “Corrected glucose AUC0→180 min, Estimate (ANOVA comparison versus placebo)” value (healthy male volunteers; 7.5 mg, periods 1-3) of the same substance?
A: 75.8 mmol·min

Q: And the “Corrected glucose Cmax, Estimate (ANOVA comparison versus placebo)” value (healthy male volunteers; 7.5 mg, periods 1-3)?
A: 0.78 mmol

Q: And the “Baseline-corrected mean peak” value (healthy male volunteers; 15 mg)?
A: below 3.0 mmol/l

Q: What about the “Increase of group mean active GLP-1 concentration over pre-dose” value (healthy male volunteers; 15 mg) of the same substance?
A: 11.6 pmol/L

Q: What about the “Mean baseline-corrected glucose AUC” value (healthy male volunteers; 15 mg) of the same substance?
A: below 200 mmol*min/l

Q: And the “Maximum change in GLP-1, active” value (healthy male volunteers; 15 mg oral single dose)?
A: 10.00 pmol/L

Q: And the “Maximum change in glucose” value (healthy male volunteers; 15 mg oral single dose)?
A: 2.43 mmol/L

Q: And the “Maximum change in insulin” value (healthy male volunteers; 15 mg oral single dose)?
A: 29.67 μIU/ml

Q: What about the “Mean changes of glucose concentration at maximum” value (healthy male volunteers; 15 mg, 60 mg and 240 mg dosing groups) of the same substance?
A: 1.71 to 3.41 mmol/L

Q: What about the “Corrected AUC0→180 min … Mean ± SD” value (healthy male volunteers; 15 mg, periods 1-3) of the same substance?
A: 130.9 ± 125.2 mmol·min

Q: And the “Corrected Cmax … Mean ± SD” value (healthy male volunteers; 15 mg, periods 1-3)?
A: 2.92 ± 1.10 mmol

Q: And the “Corrected glucose AUC0→180 min, Estimate (ANOVA comparison versus placebo)” value (healthy male volunteers; 15 mg, periods 1-3)?
A: -93.0 mmol·min

Q: And the “Corrected glucose Cmax, Estimate (ANOVA comparison versus placebo)” value (healthy male volunteers; 15 mg, periods 1-3)?
A: −1.24* mmol

Q: What about the “Maximum change in GLP-1, active” value (healthy male volunteers; 30 mg oral single dose) of the same substance?
A: 10.60 pmol/L

Q: What about the “Maximum change in glucose” value (healthy male volunteers; 30 mg oral single dose) of the same substance?
A: 3.38 mmol/L

Q: And the “Maximum change in insulin” value (healthy male volunteers; 30 mg oral single dose)?
A: 59.84 μIU/ml

Q: And the “Corrected AUC0→180 min … Mean ± SD” value (healthy male volunteers; 30 mg, periods 1-3)?
A: 116.1 ± 134.0 mmol·min

Q: And the “Corrected Cmax … Mean ± SD” value (healthy male volunteers; 30 mg, periods 1-3)?
A: 3.26 ± 1.07 mmol

Q: And the “Corrected glucose AUC0→180 min, Estimate (ANOVA comparison versus placebo)” value (healthy male volunteers; 30 mg, periods 1-3)?
A: -107.7 mmol·min

Q: And the “Corrected glucose Cmax, Estimate (ANOVA comparison versus placebo)” value (healthy male volunteers; 30 mg, periods 1-3)?
A: -0.90 mmol

Q: What about the “Increase of mean insulin concentration after 75 g glucose at 10 min post-dose” value (healthy male volunteers; 30 mg) of the same substance?
A: 56.92 μIU/ml

Q: And the “Maximum change in GLP-1, active” value (healthy male volunteers; 60 mg oral single dose)?
A: 12.20 pmol/L

Q: And the “Maximum change in glucose” value (healthy male volunteers; 60 mg oral single dose)?
A: 2.92 mmol/L

Q: What about the “Maximum change in insulin” value (healthy male volunteers; 60 mg oral single dose) of the same substance?
A: 43.35 μIU/ml

Q: And the “Corrected AUC0→180 min … Mean ± SD” value (healthy male volunteers; 60 mg, periods 4-6)?
A: 151.8 ± 99.2 mmol·min

Q: And the “Corrected Cmax … Mean ± SD” value (healthy male volunteers; 60 mg, periods 4-6)?
A: 3.50 ± 1.66 mmol

Q: What about the “Corrected glucose AUC0→180 min, Estimate (ANOVA comparison versus placebo)” value (healthy male volunteers; 60 mg, periods 4-6) of the same substance?
A: -101.1 mmol·min

Q: What about the “Corrected glucose Cmax, Estimate (ANOVA comparison versus placebo)” value (healthy male volunteers; 60 mg, periods 4-6) of the same substance?
A: −1.41* mmol

Q: And the “Maximum change in GLP-1, active” value (healthy male volunteers; 120 mg oral single dose)?
A: 11.10 pmol/L

Q: What about the “Maximum change in glucose” value (healthy male volunteers; 120 mg oral single dose) of the same substance?
A: 2.39 mmol/L

Q: What about the “Maximum change in insulin” value (healthy male volunteers; 120 mg oral single dose) of the same substance?
A: 28.63 μIU/ml

Q: And the “Corrected AUC0→180 min … Mean ± SD” value (healthy male volunteers; 120 mg, periods 4-6)?
A: 126.7 ± 147.3 mmol·min

Q: And the “Corrected Cmax … Mean ± SD” value (healthy male volunteers; 120 mg, periods 4-6)?
A: 3.09 ± 1.47 mmol

Q: And the “Corrected glucose AUC0→180 min, Estimate (ANOVA comparison versus placebo)” value (healthy male volunteers; 120 mg, periods 4-6)?
A: −126-1* mmol*min/

Q: What about the “Corrected glucose Cmax, Estimate (ANOVA comparison versus placebo)” value (healthy male volunteers; 120 mg, periods 4-6) of the same substance?
A: −1.82** mmol

Q: And the “Increase of mean insulin concentration after 75 g glucose at 10 min post-dose” value (healthy male volunteers; 120 mg)?
A: 30.12 μIU/ml

Q: And the “Baseline-corrected mean peak” value (healthy male volunteers; 240 mg)?
A: below 3.0 mmol/l

Q: And the “Increase of group mean active GLP-1 concentration over pre-dose” value (healthy male volunteers; 240 mg)?
A: 15.99 pmol/L

Q: What about the “Mean baseline-corrected glucose AUC” value (healthy male volunteers; 240 mg) of the same substance?
A: below 200 mmol*min/l

Q: And the “Maximum change in GLP-1, active” value (healthy male volunteers; 240 mg oral single dose)?
A: 14.50 pmol/L

Q: And the “Maximum change in glucose” value (healthy male volunteers; 240 mg oral single dose)?
A: 1.73 mmol/L

Q: What about the “Maximum change in insulin” value (healthy male volunteers; 240 mg oral single dose) of the same substance?
A: 33.36 μIU/ml

Q: And the “Corrected AUC0→180 min … Mean ± SD” value (healthy male volunteers; 240 mg, periods 4-6)?
A: 24.7 ± 66.6 mmol·min

Q: And the “Corrected Cmax … Mean ± SD” value (healthy male volunteers; 240 mg, periods 4-6)?
A: 1.99 ± 0.69 mmol

Q: And the “Corrected glucose AUC0→180 min, Estimate (ANOVA comparison versus placebo)” value (healthy male volunteers; 240 mg, periods 4-6)?
A: −228.2*** mmol*min/

Q: And the “Corrected glucose Cmax, Estimate (ANOVA comparison versus placebo)” value (healthy male volunteers; 240 mg, periods 4-6)?
A: −2.92*** mmol

Q: And the “Effect on active GLP-1” value (healthy male volunteers; 7.5-mg dose level)?
A: no effect discernible from placebo treatment

Q: And the “Increase of glucose concentrations during the OGTT compared with placebo” value (healthy male volunteers; 15-240 mg)?
A: significantly lower increase

Q: And the “Insulin concentrations following stimulation with 75 g glucose” value (healthy male volunteers; 120-240 mg)?
A: appeared to be decreased

Q: What about the “Glycemia at the last drug application” value (Male Zucker fa/fa rats; 05.00 p.m., night before day 21) of the same substance?
A: 5.75 ± 0.23 mmol/L

Q: And the “G-AUC in comparison to the placebo application” value (Male Zucker fa/fa rats; day 21)?
A: did not increase

Q: And the “Mean blood glucose curve in the OGTT versus controls” value (Male Zucker fa/fa rats; day 21)?
A: not different from that of the controls

Q: And the “Blood glucose during OGTT” value (Male Zucker fa/fa rats; day 21, 50 min)?
A: 14.54 ± 0.65 mmol/L

Q: And the “Blood glucose during OGTT” value (Male Zucker fa/fa rats; day 21, 120 min)?
A: 10.67 ± 0.62 mmol/L

Q: And the “Glycemia after overnight fasting (basal, before OGTT)” value (Male Zucker fa/fa rats; day 21, morning (07.30 a. m.))?
A: 4.88 ± 0.13 mmol/L

Q: And the “Fasting plasma insulin at the beginning of the OGTT” value (Male Zucker fa/fa rats; day 21, overnight fasting, listed as TP)?
A: 9.3 ± 1.5 ng/mL and ~9 ng/mL

Q: And the “Plasma insulin after a glucose stimulus” value (Male Zucker fa/fa rats; day 21 OGTT)?
A: remained mostly unchanged

Q: What about the “Glucose area under the curve (G-AUC0-120 min)” value (Male Zucker fa/fa rats; day 21 OGTT, CO-group 823±41) of the same substance?
A: 895 ± 50 mmol·min/L

Q: And the “I-AUC0-120 min compared with the other groups” value (Male Zucker fa/fa rats; day 21 OGTT, listed as TP)?
A: lower than in the CO- or RP-groups (NS); also recorded: slightly lower
